Our source for the IC50 values is BindingDB's records for doi:10.1002/cbic.201200206 (Frederick National Laboratory For Cancer Research, 2012).

SMILES strings stand for the structures.

Usually IC50 stands for the concentration needed to halve the response being measured. Low values mean higher potency, high ones lower potency.

The test deals with Serine/threonine-protein kinase PLK1 (Homo sapiens, UniProt P53350). In words: Binding Assay. The text has this:
[…] PDB fluorescence polarization competition binding assay using Plk.

Serine/threonine-protein kinase PLK1, sequence (P53350 whole entry): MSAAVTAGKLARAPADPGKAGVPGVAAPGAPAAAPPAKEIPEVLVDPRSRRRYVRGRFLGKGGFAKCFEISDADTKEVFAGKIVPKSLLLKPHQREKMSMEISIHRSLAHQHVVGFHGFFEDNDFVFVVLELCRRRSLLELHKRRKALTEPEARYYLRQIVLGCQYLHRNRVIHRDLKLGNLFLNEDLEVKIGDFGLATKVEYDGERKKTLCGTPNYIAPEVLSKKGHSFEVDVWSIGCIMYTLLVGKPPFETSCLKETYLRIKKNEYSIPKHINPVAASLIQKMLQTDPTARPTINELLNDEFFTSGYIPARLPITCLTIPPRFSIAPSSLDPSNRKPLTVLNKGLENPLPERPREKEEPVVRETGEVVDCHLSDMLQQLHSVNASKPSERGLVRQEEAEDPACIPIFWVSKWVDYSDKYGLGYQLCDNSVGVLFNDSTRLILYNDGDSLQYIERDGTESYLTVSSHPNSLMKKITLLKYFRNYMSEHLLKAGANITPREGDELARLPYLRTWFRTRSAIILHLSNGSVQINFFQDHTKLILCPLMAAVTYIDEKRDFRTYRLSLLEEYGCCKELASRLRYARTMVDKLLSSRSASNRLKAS

Molecule `CC(=O)N(CCCCc1ccccc1)CC(=O)N[C@H](CC(C)C)C(=O)N[C@H](Cc1cnc[nH]1)C(=O)N[C@H](CO)C(=O)N[C@@H](C(N)=O)[C@@H](C)CP(=O)(O)O` [Peptide-peptoid hybrid, 13] came in with an IC50 of 71 nM.
